Assay results taken from paper PMC4696656, “Insights into the Mechanism of Action of Bactericidal Lipophosphonoxins” (PLoS ONE, 2015).

Test system: B. subtilis 168
Assay: Selection for resistant strains, stepwise two-fold increased concentration
Format: cell-based, Bacillus subtilis
Conditions: 24 h cultures, two-fold increased concentration each transfer; rifampicin from 0.01 mg/L, DR5026 from 0.5 mg/L
Description: A) B. subtilis. […] Then, the growth of the culture was evaluated by OD600nm and an aliquot of the culture was transferred to a new tube with fresh medium and a two-fold increased concentration of the active compound. This template was followed until no growth was detected for DR5026 or until B. subtilis grew at 5 mg/L of rifampicin.

For CCCCCCCCCCCCCCCCOP(=O)(CCN1C[C@@H](O)[C@H](O)C1)OC[C@H]1O[C@@H](n2ccc(=O)[nH]c2=O)[C@H](O)[C@@H]1O (stereo partly shown) [DR5026], the development of resistance was “failed to obtain cells that would grow at concentrations exceeding the MIC”.
